Test results published in article PMC5562305, “Impact of novel palmitoylated prolactin-releasing peptide analogs on metabolic changes in mice with diet-induced obesity” (PLoS ONE, 2017).
Starred links: 1 amine or outer side, 2 acyl side, 3 side chain; linkers in the order of their positions; H or OH if unused. Residues, ends and D or L forms follow the SMILES beside them. Groups on a side chain read outwards from the residue. *: point of attachment. γGlu = O=C(O)[C@H](CCC(=O)[*:2])N[*:1]; Palmitoyl = CCCCCCCCCCCCCCCC(=O)*

Tested on: urinary metabolites
Test: NMR-based metabolomics of urine of DIO mice
Format: in vivo, C57BL/6 mice
Parameters: key to DMA, Mean / DMG, Mean / MA, Mean / TMA, Mean / acetate, Mean / allantoin, Mean / carnitine, Mean / choline, Mean / cis-aconitate, Mean / creatine+creatinine, Mean / creatine, Mean / creatinine, Mean / ethanolamine, Mean / formate, Mean / galactose, Mean / glucose, Mean / glycine, Mean / lactate, Mean / succinate, Mean / vinylacetylglycine, Mean: TSA-normalized intensity of the metabolite's representative NMR signal
Conditions: urine NMR signal, DIO mice
Experimental: Urine samples for NMR-based metabolomics were collected prior to the start of the interventions and at the end of the experiment. For overnight urine collection (from 5 pm to 8 am), the mice were housed in individual metabolic cages (Tecniplast, Buguggiate, Italy) without access to food. Samples were collected with the addition of NaN3 and stored at -80°C until NMR analysis.
The urine samples were thawed at room temperature and centrifuged at 13 684 x g for 5 min prior to the NMR experiments. A 200-μl aliquot of supernatant was diluted with 340 μl of H2O mixed with 60 μl of phosphate buffer (1.5 M KH2PO4 in D2O containing 2 mM NaN3 and 0.1% trimethylsilyl propionic acid (TSP), pH 7.4) and transferred to a 5-mm NMR tube. The NMR data were acquired with a 600 MHz Bruker Avance III spectrometer (Bruker BioSpin, Rheinstetten, Germany) equipped with a 5-mm TCI cryogenic probe head. All of the experiments were performed at 300 K. Automatic tuning, matching, shimming and adjusting of the 90° pulse length were performed for each sample.
As mouse urine naturally contains urinary proteins, the NMR spectra were acquired using a Carr-Purcell-Meiboom-Gill (CPMG) pulse sequence with water presaturation (Bruker pulse sequence cpmgpr1d) to eliminate the strong protein background. […] For better metabolite identification, a short J-resolved experiment with presaturation (NS = 2, SW = 16 ppm, TD = 8k, number of increments = 40, SW = 78.125 Hz in the indirect dimension, and relaxation delay = 2 s) was executed for all samples. Additional two-dimensional ^1H-^1H correlation spectroscopy (COSY) and ^1H-^13C heteronuclear multiple-quantum correlation (HMQC) experiments (Bruker pulse sequences cosygpprqf and hmqcphpr) were performed for selected samples.
The acquired data were processed using Topspin 3.2 software (Bruker BioSpin, Rheinstetten, Germany). Line broadening of 0.3 Hz was applied on free induction decays (FIDs) prior to Fourier transformation. The spectra were automatically phased, baseline corrected and referenced to the signal of TSP (0.00 ppm).
The assignment of individual metabolites was achieved by comparing the proton spectra with the spectra of pure metabolites using Chenomx NMR Suite 7.6 (Chenomx Inc., Edmonton, AB, Canada), the HMDB database and previously published metabolomic data. The identification of metabolites was supported through J-resolved and COSY experiments and, if possible, confirmed using carbon chemical shifts extracted from the HMQC spectra.
For quantitation of individual metabolites, the CPMG spectra were uniformly binned in the range of 0.10–10.00 ppm to 0.01-ppm intervals using AMIX software (Bruker BioSpin, Rheinstetten, Germany). This procedure reduced the dimensionality of the data, eliminated chemical shift variations and thus simplified the reproducible automatic quantification. Regions corresponding to water (4.60–4.90 ppm) and urea (5.60–6.00 ppm) were removed prior to analysis. As the dilutions of the original urine samples differed (due to the differences in water intake during urine collection), all of the spectra were normalized to the total spectral area (TSA). For each identified metabolite, one representative signal was chosen and then quantified as the sum of appropriate adjacent 0.01-ppm bins to cover the whole signal width. The metabolite concentration was expressed as the TSA-normalized intensity of the respective signal. For selection of an appropriate statistical method (parametric or non-parametric) the Lilliefors test of normality was performed. […] Metabolite alterations with a P < 0.05 were considered statistically significant. Statistical analysis was performed using Matlab software (“MATLAB version 8.6 (R2015b). Natick, Massachusetts: The MathWorks Inc., 2015.,” n.d.). […]

CCCCCCCCCCCCCCCC(=O)N[C@@H](CCC(=O)NCCCC[C@H](NC(=O)[C@@H](NC(=O)[C@H](CCC(=O)O)NC(=O)[C@H](CCSC)NC(=O)[C@H](CO)NC(=O)[C@H](Cc1c[nH]cn1)NC(=O)[C@H](CCCNC(=N)N)NC(=O)[C@H](Cc1c[nH]cn1)NC(=O)[C@@H](NC(=O)[C@H](CCCNC(=N)N)NC(=O)[C@@H](N)CO)[C@@H](C)O)[C@@H](C)CC)C(=O)N[C@H](C(=O)N1CCC[C@H]1C(=O)N[C@@H](CC(=O)O)C(=O)N[C@H](C(=O)N[C@@H](CC(N)=O)C(=O)N1CCC[C@H]1C(=O)N[C@@H](C)C(=O)N[C@@H](Cc1c[nH]c2ccccc12)C(=O)N[C@@H](Cc1ccc(O)cc1)C(=O)N[C@@H](C)C(=O)N[C@@H](CO)C(=O)N[C@@H](CCCNC(=N)N)C(=O)NCC(=O)N[C@H](C(=O)N[C@@H](CCCNC(=N)N)C(=O)N1CCC[C@H]1C(=O)N[C@H](C(=O)NCC(=O)N[C@@H](CCCNC(=N)N)C(=O)N[C@@H](Cc1ccccc1)C(N)=O)C(C)C)[C@@H](C)CC)[C@@H](C)CC)[C@@H](C)O)C(=O)O [analog 1] (H-SRTHRHSMEIK([γGlu-Palmitoyl])TPDINPAWYASRGIRPVGRF-NH2; N-terminus assumed)
2-OG (2.45 ppm), Saline/analog1 % (change of group mean vs saline): 0.026%
2-OG (3.01 ppm), Saline/analog1 % (change of group mean vs saline): -0.000867%
2-PY (8.33 ppm), Saline/analog1 % (change of group mean vs saline): -0.107%
3-indoxylsulfate (7.51 ppm), Saline/analog1 % (change of group mean vs saline): 0.024%
3-indoxylsulfate (7.71 ppm), Saline/analog1 % (change of group mean vs saline): 0.023%
4-PY (7.97 ppm), Saline/analog1 % (change of group mean vs saline): -0.088%
4-PY (8.55 ppm), Saline/analog1 % (change of group mean vs saline): -0.153%
DMA, Saline/analog1 % (change of group mean vs saline): 0.019%
MNA-Nox (8.75 ppm), Saline/analog1 % (change of group mean vs saline): -0.117%
N-carbamoylalanine (2.38 ppm), Saline/analog1 % (change of group mean vs saline): 0.020%
N-carbamoylalanine (3.31 ppm), Saline/analog1 % (change of group mean vs saline): -0.071%
N-isovalerylglycine + oxovalerate (0.92 ppm), Saline/analog1 % (change of group mean vs saline): 0.093%
TMA, Saline/analog1 % (change of group mean vs saline): -0.084%
acetate, Saline/analog1 % (change of group mean vs saline): 0.161%
allantoin, Saline/analog1 % (change of group mean vs saline): 0.042%
carnitine, Saline/analog1 % (change of group mean vs saline): 0.063%
choline, Saline/analog1 % (change of group mean vs saline): 0.027%
cis-aconitate, Saline/analog1 % (change of group mean vs saline): -0.010%
citrate (2.55 ppm), Saline/analog1 % (change of group mean vs saline): -0.078%
citrate (2.69 ppm), Saline/analog1 % (change of group mean vs saline): -0.081%
creatine+creatinine, Saline/analog1 % (change of group mean vs saline): 0.078%
creatine, Saline/analog1 % (change of group mean vs saline): -0.018%
creatinine, Saline/analog1 % (change of group mean vs saline): 0.087%
ethanolamine, Saline/analog1 % (change of group mean vs saline): -0.040%
formate, Saline/analog1 % (change of group mean vs saline): 0.026%
fumarate, Saline/analog1 % (change of group mean vs saline): -0.176%
galactose, Saline/analog1 % (change of group mean vs saline): -0.073%
glucose, Saline/analog1 % (change of group mean vs saline): -0.101%
glycine, Saline/analog1 % (change of group mean vs saline): -0.064%
hexanoylglycine + acids (0.88 ppm), Saline/analog1 % (change of group mean vs saline): 0.195%
hippurate (7.55 ppm), Saline/analog1 % (change of group mean vs saline): -0.067%
hippurate (7.64 ppm), Saline/analog1 % (change of group mean vs saline): -0.069%
hippurate (7.84 ppm), Saline/analog1 % (change of group mean vs saline): -0.067%
lactate, Saline/analog1 % (change of group mean vs saline): 0.188%
multiplet acids (1.6 ppm), Saline/analog1 % (change of group mean vs saline): 0.198%
putrescin, Saline/analog1 % (change of group mean vs saline): 0.025%
succinate, Saline/analog1 % (change of group mean vs saline): 0.118%
taurine (3.27 ppm), Saline/analog1 % (change of group mean vs saline): -0.289%
taurine (3.43 ppm), Saline/analog1 % (change of group mean vs saline): -0.352%
trigonelline (8.84 ppm), Saline/analog1 % (change of group mean vs saline): -0.128%
trigonelline (9.13 ppm), Saline/analog1 % (change of group mean vs saline): -0.163%
vinylacetylglycine, Saline/analog1 % (change of group mean vs saline): 0.197%
2-OG (2.45 ppm), Mean (group mean): 12.062
2-OG (3.01 ppm), Mean (group mean): 10.231
2-PY (8.33 ppm), Mean (group mean): 1.038
3-indoxylsulfate (7.51 ppm), Mean (group mean): 1.334
3-indoxylsulfate (7.71 ppm), Mean (group mean): 0.788
4-PY (7.97 ppm), Mean (group mean): 1.650
4-PY (8.55 ppm), Mean (group mean): 0.491
DMA, Mean (group mean): 5.115
DMG, Mean (group mean): 1.908
MA, Mean (group mean): 2.952
MNA (8.90 ppm), Mean (group mean): 0.369
MNA (8.97 ppm), Mean (group mean): 0.353
MNA (9.265 ppm), Mean (group mean): 0.370
MNA-Nox (7.75 ppm), Mean (group mean): 0.962
MNA-Nox (8.13 ppm), Mean (group mean): 0.690
MNA-Nox (8.49 ppm), Mean (group mean): 0.452
MNA-Nox (8.75 ppm), Mean (group mean): 0.431
N-carbamoylalanine (2.38 ppm), Mean (group mean): 10.982
N-carbamoylalanine (3.31 ppm), Mean (group mean): 8.810
N-isovalerylglycine + oxovalerate (0.92 ppm), Mean (group mean): 15.843
TMA, Mean (group mean): 11.127
acetate, Mean (group mean): 4.363
allantoin, Mean (group mean): 21.031
carnitine, Mean (group mean): 6.328
choline, Mean (group mean): 2.023
cis-aconitate, Mean (group mean): 8.788
citrate (2.55 ppm), Mean (group mean): 30.039
citrate (2.69 ppm), Mean (group mean): 27.401
creatine+creatinine, Mean (group mean): 24.594
creatine, Mean (group mean): 6.851
creatinine, Mean (group mean): 12.065
ethanolamine, Mean (group mean): 7.631
formate, Mean (group mean): 0.204
fumarate, Mean (group mean): 0.145
galactose, Mean (group mean): 0.718
glucose, Mean (group mean): 3.260
glycine, Mean (group mean): 5.697
hexanoylglycine + acids (0.88 ppm), Mean (group mean): 15.760
hippurate (7.55 ppm), Mean (group mean): 4.327
hippurate (7.64 ppm), Mean (group mean): 2.207
hippurate (7.84 ppm), Mean (group mean): 4.594
lactate, Mean (group mean): 7.323
multiplet acids (1.6 ppm), Mean (group mean): 12.799
putrescin, Mean (group mean): 9.134
succinate, Mean (group mean): 12.041
taurine (3.27 ppm), Mean (group mean): 18.310
taurine (3.43 ppm), Mean (group mean): 14.649
trigonelline (8.84 ppm), Mean (group mean): 0.272
trigonelline (9.13 ppm), Mean (group mean): 0.107
vinylacetylglycine, Mean (group mean): 3.595
